{"source": "patent US10543159B2", "about": "“Hair papilla cell activator” (Ezaki Glico Co., Ltd., priority 2014, dated 2020)", "key": {"[1]": {"test_system": "human follicle dermal papilla cells", "assay": "Follicle dermal papilla cell proliferation, WST-1 (Example 1)", "type": "cell-based", "procedure": "A strain (Lot. 3092504.12) sold by PromoCell (Germany) was used as human follicle dermal papilla cells. The cells were cultured in a CO2 incubator at 37° C., using a special medium for follicle dermal papilla cells (PromoCell), unless otherwise indicated. Cell subculturing was performed as follows: cells were seeded at 5000 to 10000 cells/cm^2 in an uncoated dish, and when the cells reached subconfluent, they were treated with trypsin-EDTA (0.03%) and detached, and then re-seeded. The trypsin-EDTA treatment allows complete detachment of the cells by incubation at 37° C. for nearly 10 minutes, with a high survival rate. The medium was replaced about once every 3 days.\n(1) Human follicle dermal papilla cells were seeded in a 96-well collagen I-coated plate (BD Biocoat Collagen I 96-well clear plate) at 1.6×10^3 cells/well and cultured at 37° C. for 24 hours. Cells were not seeded in two wells on the plate for blanks.\n(2) Solutions of the compositions shown in the table were prepared in a concentration series starting from a 10% (w/v) aqueous solution of POs-Ca (R), a 1.84% (w/v) aqueous solution of CaCl2.2H2O, or a 12.9% (w/v) aqueous solution of G1P-Ca.\n(3) The above-described aqueous solutions and the special medium were mixed at a ratio of 1:9 to prepare media having five different concentrations for each calcium species with a final concentration of 1/10 shown in Table 1. The media in each of the columns of Table 1 have the same calcium concentration. […]\n(7) Absorbance at 440 nm was measured for each well, using a fluorescence microplate reader (Varioskan Flash 2.4; Thermo Fisher Scientific, US).\n(8) The value obtained by subtracting the absorbance of the blank wells from the absorbance of the well of the sample was defined as the value of the relative amount of cells of the sample in each well. The degree of cell proliferation relative to the control was calculated by dividing the value of the relative amount of cells in each well, by the average value of the relative amount of cells in the control medium."}, "CSPG4": {"test_system": "CSPG4", "assay": "Quantitative PCR gene expression in follicle dermal papilla cells: CSPG4", "type": "cell-based, human", "conditions": "Example 3: 0.25% POs-Ca (R) or CaCl2 of equivalent calcium, DMEM, 37° C., 5 hours; Dunnett, n=6", "protocol": "(§1) (1) 500 μl of a special medium in which 4×10^4 cells/ml of follicle dermal papilla cells were suspended was dispensed into a type I collagen-coated 24-well cell culture plate (Corning), and cultured at a cell density of 1.0×10^4 cells/cm^2 at 37° C. for 42 hours. (2) (a) Water (control), (b) a 2.5% (w/v) aqueous solution of POs-Ca (R), and (c) a 0.457% aqueous solution of CaCl2 (having an equivalent amount of calcium to that of (b)) were prepared. Each of the solutions (a) to (c) was mixed with DMEM high glucose (Sigma, USA) at a ratio of 1:9. […]\n(§2) (6) 0.5 μl of each of cDNA solutions diluted 2-fold with water, 1 μl of a solution containing 4 μM of each of primers 1 and 2 for each of the genes shown in Table 2, 5 μl of SYBR Premix Ex Taq II (Takara), and 3.5 μl of water were added, and quantitative PCR was performed on each of the genes. […] Fluorescence intensity after each cycle was measured.\n(§3) (7) Using PGK1 and GAPDH as reference genes, a comparative analysis of expression levels was performed with the analysis software (Bio-Rad CFX Manager 3.0) included in CFX96Touch. Relative expression levels were calculated under the default conditions of the software.\n(§4) (8) The average value of calculated expression levels was determined for the six samples derived from the cells treated under the respective conditions, and defined as the expression level relative to the control."}, "ALPL": {"test_system": "ALPL", "assay": "Quantitative PCR gene expression in follicle dermal papilla cells: ALPL", "type": "cell-based, human", "conditions": "Example 3: 0.25% POs-Ca (R) or CaCl2 of equivalent calcium, DMEM, 37° C., 5 hours; Dunnett, n=6", "protocol": "as §1, §2, §3, §4"}, "VEGF [2]": {"test_system": "VEGF", "assay": "Quantitative PCR gene expression in follicle dermal papilla cells: VEGF", "type": "cell-based, human", "conditions": "Example 3: 0.25% POs-Ca (R) or CaCl2 of equivalent calcium, DMEM, 37° C., 5 hours; Dunnett, n=6"}, "VEGF [3]": {"test_system": "VEGF", "assay": "Expression rate of VEGF among acidic saccharide salts, quantitative PCR (Example 6)", "type": "cell-based, human", "conditions": "Example 6: solutions (b)-(h) of b288 mixed 1:9 with DMEM, GAPDH reference, mean of 4 PCR assays, dihydrate", "procedure": "(1) 500 μl of a special medium in which 2×10^4 cells/ml of follicle dermal papilla cells were suspended was dispensed into a type I collagen-coated 24-well cell culture plate (Corning), and cultured at a cell density of 5×10^3 cells/cm^2 at 37° C. for 72 hours. […] Oji Cornstarch Co., Ltd.), (f) a 2.5% (w/v) aqueous solution of a phosphorylated oligosaccharide magnesium salt (POs-Mg; […] (3) Each of the solutions (a) to (c) was mixed with DMEM high glucose (Sigma, USA) at a ratio of 1:9. (4) Following the procedures (4) to (6) in Example 2, mRNA was extracted from the cells, cDNA was prepared, and then the expression levels of the VEGF, FGF-7, and GAPDH genes were quantified by quantitative PCR. (7) Using GAPDH as a reference gene, a comparative analysis of expression levels was performed with the analysis software (Bio-Rad CFX Manager 3.0) included in CFX96Touch. The expression levels were calculated under the default conditions of the software."}}, "data": [{"smiles": "O.O.[Ca+2].[Cl-].[Cl-]", "note": "[CaCl2, calcium chloride dihydrate]", "values": [{"measurement": "proliferation rate tendency at low concentrations", "setting": "[1]; 0.0625% and 0.12% POs-Ca (R), 0.0115% and 0.023% calcium chloride", "result": "tended to decrease"}, {"measurement": "increase of cell proliferation relative to the control", "setting": "[1]; 0.25% POs-Ca (R) or calcium chloride with equivalent calcium, 3 days, WST-1", "result": 5.6, "unit": "%"}, {"measurement": "proliferation rate at high concentrations", "setting": "[1]; 0.5% and 1.0% POs-Ca (R), 0.092% and 0.184% calcium chloride", "result": "tended to increase"}, {"measurement": "expression of CSPG4 gene compared to control", "setting": "CSPG4", "result": "significant increases in the expression of genes were not observed"}, {"measurement": "expression of ALPL gene compared to control", "setting": "ALPL", "result": "significant increases in the expression of genes were not observed"}, {"measurement": "expression of VEGF gene compared to control", "setting": "VEGF [2]", "result": "significant increases in the expression of genes were not observed"}, {"measurement": "VEGF, relative values of the expression levels based on the control as 1", "setting": "VEGF [3]", "result": 0.80}, {"measurement": "VEGF, relative values of the expression levels based on the control as 1", "setting": "VEGF [3]; listed as calcium chloride", "result": "either comparable to or below the control"}]}]}
